Assay results as given in US8906909B2 (Curis, Inc., priority 2009, dated 2014).
Where two headings read alike, the source gives them in different places.

How the values were obtained:
Format in all cases: cell-based
U937 cells = experiment: Cell proliferation assay Method B, U937; conditions: Homo sapiens, U-937, AML, 72 hours, read-out: antiproliferative activity IC50, U937
Protocol: (§1) Cancer cell lines were plated at 5,000 to 10,000 per well in 96-well flat bottomed plates with various concentration of compounds. The cells were incubated with compounds for 72 hours in the presence of 0.5% of fetal bovine serum. Growth inhibition was accessed by adenosine triphosphate (ATP) content assay using Promega CellTiter-Glo kit. Promega CellTiter-Glo kit is an ATP monitoring system based on firefly luciferase. Briefly, 16 μl of mammalian cell lysis and substrate solution was added to 84 μl of culture medium per well to lyse the cells and stabilize the ATP. The mixture was shaken and incubated for 30 minutes and subsequently the luminescence was measured.

ARH77 cells = experiment: Cell proliferation assay Method B, ARH77; conditions: Homo sapiens, ARH-77, Multiple Myeloma, 72 hours, read-out: antiproliferative activity IC50, ARH77
Protocol: as §1

THP-1 cells = experiment: Cell proliferation assay Method B, THP-1; conditions: Homo sapiens, AML, 72 hours, read-out: antiproliferative activity IC50, THP-1
Protocol: as §1

Sk-Mel-28 cells = experiment: Cell proliferation assay Method B, Sk-Mel-28; conditions: Homo sapiens, SK-MEL-28; Melanoma; Method B; 72 hours; read-out: antiproliferative activity IC50, Sk-Mel-28
Protocol: as §1

RPMI-8226 cells = experiment: Cell proliferation assay Method B, RPMI-8226; conditions: Homo sapiens, Multiple Myeloma, Method B, 72 hours, read-out: antiproliferative activity IC50, RPMI-8226
Procedure, shortened: (§2)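 Plate 5,000 to 10,000 cells per well together with compound dilutions. Incubate 72 hours in medium containing 0.5% fetal bovine serum. Add lysis/luciferase substrate reagent, shake, wait 30 minutes, then read luminescence.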

MDA-MB-453 cells = experiment: Cell proliferation assay Method B, MDA-MB-453; conditions: Homo sapiens, Breast, 72 hours, read-out: antiproliferative activity IC50, MDA-MB-453
Protocol: as §1

MDA-MB-361 cells = experiment: Cell proliferation assay Method B, MDA-MB-361; conditions: Homo sapiens, Breast, 72 hours, read-out: antiproliferative activity IC50, MDA-MB-361
Protocol: as §1

Raji cells = experiment: Cell proliferation assay Method B, Raji; conditions: Homo sapiens, NHL, 72 hours, read-out: antiproliferative activity IC50, Raji
Protocol: as §1

Ca127 cells = experiment: Cell proliferation assay Method B, Ca127; conditions: HNC; Method B; 72 hours; read-out: antiproliferative activity IC50, Ca127
Protocol: as §1

L1210 cells = experiment: Cell proliferation assay Method B, L1210; conditions: Mouse LL, 72 hours, read-out: antiproliferative activity IC50, L1210
Protocol: as §1

H1993 cells = experiment: Cell proliferation assay Method B, H1993; conditions: Homo sapiens, NCI-H1993; NSCLC; Method B; 72 hours; read-out: antiproliferative activity IC50, H1993
Protocol: as §1

HCC1806 cells = experiment: Cell proliferation assay Method B, HCC1806; conditions: Homo sapiens, Breast, 72 hours, read-out: antiproliferative activity IC50, HCC1806
Protocol: as §1

MCF-7 cells = experiment: Cell proliferation assay Method B, MCF-7; conditions: Homo sapiens, MCF7, Breast, 72 hours, read-out: antiproliferative activity IC50, MCF-7
Protocol: as §1

U87MG cells = experiment: Cell proliferation assay Method B, U87MG; conditions: Homo sapiens, U-87 MG; Glioblastoma; Method B; 72 hours; read-out: antiproliferative activity IC50, U87MG
Protocol: as §1

HL-60 cells = experiment: Cell proliferation assay Method B, HL-60; conditions: Homo sapiens, AML, 72 hours, read-out: antiproliferative activity IC50, HL-60
Protocol: as §1

MV-4-11 cells = experiment: Cell proliferation assay Method B, MV-4-11; conditions: Homo sapiens, MV4-11, AML, 72 hours, read-out: antiproliferative activity IC50, MV-4-11
Protocol: as §1

A375 cells = experiment: Cell proliferation assay Method B, A375; conditions: Homo sapiens, A-375; Melanoma; Method B; 72 hours; read-out: antiproliferative activity IC50, A375
Protocol: as §1

MEG-01 cells = experiment: Cell proliferation assay Method B, MEG-01; conditions: Homo sapiens, CML, 72 hours, read-out: antiproliferative activity IC50, MEG-01
Protocol: as §1

HCC1937 cells = experiment: Cell proliferation assay Method B, HCC1937; conditions: Homo sapiens, Breast, Method B, 72 hours, read-out: antiproliferative activity IC50, HCC1937
Protocol: as §1

K562 cells = experiment: Cell proliferation assay Method B, K562; conditions: Homo sapiens, CML, 72 hours, read-out: antiproliferative activity IC50, K562
Protocol: as §1

Daudi cells = experiment: Cell proliferation assay Method B, Daudi; conditions: Homo sapiens, NHL, 72 hours, read-out: antiproliferative activity IC50, Daudi
Protocol: as §1

SKBr3 cells = experiment: Cell proliferation assay Method B, SKBr3; conditions: Homo sapiens, SK-BR-3, Breast, 72 hours, read-out: antiproliferative activity IC50, SKBr3
Protocol: as §1

UACC-893 cells = experiment: Cell proliferation assay Method B, UACC-893; conditions: Homo sapiens, Breast, 72 hours, read-out: antiproliferative activity IC50, UACC-893
Protocol: as §1

T47D cells = experiment: Cell proliferation assay Method B, T47D; conditions: Homo sapiens, Breast, 72 hours, read-out: antiproliferative activity IC50, T47D
Protocol: as §1

MDA-MB-231 cells = experiment: Cell proliferation assay Method B, MDA-MB-231; conditions: Homo sapiens, Breast, Method B, 72 hours
Protocol: as §1

BT474 cells = experiment: Cell proliferation assay Method B, BT474; conditions: Homo sapiens, BT-474; Breast; Method B; 72 hours; read-out: antiproliferative activity IC50, BT474
Procedure, shortened: as §2

HCC1500 cells = experiment: Cell proliferation assay Method B, HCC1500; conditions: Breast, 72 hours, read-out: antiproliferative activity IC50, HCC1500
Protocol: as §1

MDA-MB-436 cells = experiment: Cell proliferation assay Method B, MDA-MB-436; conditions: Homo sapiens, Breast, Method B, 72 hours, read-out: antiproliferative activity IC50, MDA-MB-436
Protocol: as §1

Pfeiffer cells = experiment: Cell proliferation assay Method B, Pfeiffer; conditions: Homo sapiens, NHL, 72 hours, read-out: antiproliferative activity IC50, Pfeiffer
Protocol: as §1

[1] = read-out: antiproliferative activity IC50, MDA-MB-231 (second listing, r32)

| SMILES | IC50 (U937 cells) | IC50 (ARH77 cells) | IC50 (THP-1 cells) | IC50 (Sk-Mel-28 cells) | IC50 (RPMI-8226 cells) | IC50 (MDA-MB-453 cells) | IC50 (MDA-MB-361 cells) | IC50 (Raji cells) | IC50 (Ca127 cells) | IC50 (L1210 cells) | IC50 (H1993 cells) | IC50 (HCC1806 cells) | IC50 (MCF-7 cells) | IC50 (U87MG cells) | IC50 (HL-60 cells) | IC50 (MV-4-11 cells) | IC50 (A375 cells) | IC50 (MEG-01 cells) | IC50 (HCC1937 cells) | IC50 (K562 cells) | other results |
| --- | --- | --- | --- | --- | --- | --- | --- | --- | --- | --- | --- | --- | --- | --- | --- | --- | --- | --- | --- | --- | --- |
| CN(Cc1cc2nc(-c3ccc(N)cc3)nc(N3CCOCC3)c2s1)c1ncc(C(=O)NO)cn1 [Compound 150, 2-(((2-(4-aminophenyl)-4-morpholinothieno[3,2-d]pyrimidin-6-yl)methyl)(methyl)amino)-N-hydroxypyrimidine-5-carboxamide] | < 10 nM | < 0.01 µM | < 10 nM | < 10 nM | < 0.01 µM | < 10 nM | < 10 nM | < 0.01 µM | < 10 nM | < 0.01 µM | < 10 nM | 10 to 100 nM | < 10 nM | < 10 nM | < 10 nM | < 10 nM | < 10 nM | 10 to 100 nM | < 10 nM | 10 to 100 nM | IC50 (Daudi cells): < 0.01 µM; IC50 (SKBr3 cells): 10 to 100 nM; IC50 (UACC-893 cells): < 10 nM; IC50 (T47D cells): < 0.01 µM; IC50 (MDA-MB-231 cells; [1]): 0.01 to 0.1 µM; IC50 (BT474 cells): < 10 nM; IC50 (HCC1500 cells): < 0.01 µM; IC50 (MDA-MB-436 cells): < 10 nM; IC50 (Pfeiffer cells): < 10 nM |
| CS(=O)(=O)N1CCN(Cc2cc3nc(-c4cccc5[nH]ncc45)nc(N4CCOCC4)c3s2)CC1 [GDC-0941, reference compound] | 1000 to 10000 nM | > 10 µM | 1000 to 10000 nM | 10 to 100 nM | > 10 µM | 100 to 1000 nM | 100 to 1000 nM | > 10 µM | 100 to 1000 nM | > 10 µM | 1000 to 10000 nM | > 10000 nM | 100 to 1000 nM | 100 to 1000 nM | 100 to 1000 nM | 1000 to 10000 nM | 1000 to 10000 nM | > 10000 nM | 100 to 1000 nM | > 10000 nM | IC50 (Daudi cells): > 10 µM; IC50 (SKBr3 cells): > 10000 nM; IC50 (UACC-893 cells): 1000 to 10000 nM; IC50 (T47D cells): > 10 µM; IC50 (MDA-MB-231 cells; read-out: antiproliferative activity IC50, MDA-MB-231 (first listing, r25)): > 10 µM; IC50 (MDA-MB-231 cells; [1]): > 10 µM; IC50 (BT474 cells): 100 to 1000 nM; IC50 (HCC1500 cells): > 10 µM; IC50 (MDA-MB-436 cells): 1000 to 10000 nM; IC50 (Pfeiffer cells): 100 to 1000 nM |
